Tested on: S. aureus T17
Assay: Minimum inhibitory concentration (MIC), biphenomycin-resistant S. aureus T17
Assay type: cell-based
Protocol: Determination of the Minimum Inhibitory Concentration (MIC)
The minimum inhibitory concentration (MIC) is the minimum concentration of an antibiotic with which the growth of a test microbe is inhibited over 18-24 h. The inhibitor concentration can in these cases be determined by standard microbiological methods (see, for example, The National Committee for Clinical Laboratory Standards. Methods for dilution antimicrobial susceptibility tests for bacteria that grow aerobically; approved standard-fifth edition. NCCLS document M7-A5 [ISBN 1-56238-394-9]. NCCLS, 940 West Valley Road, Suite 1400, Wayne, Pa. 19087-1898 USA, 2000). The MIC of the compounds of the invention is determined in the liquid dilution test on the 96-well microtitre plate scale. The bacterial microbes are cultivated in a minimal medium (18.5 mM Na2HPO4, 5.7 mM KH2PO4, 9.3 mM NH4Cl, 2.8 mM MgSO4, 17.1 mM NaCl, 0.033 μg/ml of thiamine hydrochloride, 1.2 μg/ml of nicotinic acid, 0.003 μg/ml of biotin, 1% glucose, 25 μg/ml of each proteinogenic amino acid with the exception of phenylalanine; [H.-P. Kroll; unpublished]) with addition of 0.4% BH broth (test medium). In the case of Enterococcus faecium L4001, heat-inactivated fetal calf serum (FCS; GibcoBRL, Germany) is added to the test medium in a final concentration of 10%. Overnight cultures of the test microbes are diluted to an OD578 of 0.001 (to 0.01 in the case of enterococci) in fresh test medium, and incubated 1:1 with dilutions of the test substances (1:2 dilution steps) in test medium (200 μl final volume). The cultures are incubated at 37° C. for 18-24 hours; enterococci in the presence of 5% CO2
The lowest substance concentration in each case at which no visible bacterial growth occurs any more is defined as the MIC.
Alternative Method for Determining the Minimum Inhibitory Concentration (MIC)
The minimum inhibitory concentration (MIC) is the minimum concentration of an antibiotic with which the growth of a test microbe is inhibited over 18-24 h. The inhibitor concentration can in these cases be determined by standard microbiological methods with modified medium in an agar dilution test (see, for example, The National Committee for Clinical Laboratory Standards. Methods for dilution antimicrobial susceptibility tests for bacteria that grow aerobically; approved standard-fifth edition. NCCLS document M7-A5 [ISBN 1-56238-394-9]. NCCLS, 940 West Valley Road, Suite 1400, Wayne, Pa. 19087-1898 USA, 2000). The bacterial microbes are cultivated on 1.5% agar plates which contain 20% defibrinated horse blood. The test microbes, which are incubated overnight on Columbia blood agar plates (Becton-Dickinson), are diluted in PBS, adjusted to a microbe count of about 5×10^5 microbes/ml and placed dropwise (1-3 μl) on test plates. The test substances comprise different dilutions of the test substances (1:2 dilution steps). The cultures are incubated at 37° C. in the presence of 5% CO2 for 18-24 hours.
The lowest substance concentration in each case at which no visible bacterial growth occurred any more is defined as the MIC and is reported in μg/ml.
The S. aureus strain T17 is isolated in vivo. CFW1 mice are infected intraperitoneally with 4×10^7 S. aureus 133 cells per mouse. 0.5 h after the infection, the animals are treated intravenously with 50 mg/kg biphenomycin B. The kidneys are removed from the surviving animals on day 3 after the infection. After homogenization of the organs, the homogenates are plated out as described for RN4220Bi^R on antibiotic-free and antibiotic-containing agar plates and incubated at 37° C. overnight. […] About 20 of these colonies are tested for the biphenomycin B MIC, and a colony with a MIC of >50 μM is selected for further cultivation, and the strain is referred to as T17.

NC[C@H](O)C[C@@H]1NC(=O)[C@@H](N)Cc2cc(ccc2O)-c2ccc(O)c(c2)C[C@@H](C(=O)O)NC1=O [Biphenomycin B, biphenomycin B, reference compound]
MIC S. aureus T17 (biphenomycin-resistant S. aureus T17): >32 µg/mL
MIC (colony from kidney selected as strain T17): > 50 µM

— US20080300231A1, “Antibacterial amide macrocycles VI” (priority 2005, published 2008)
